Measured values taken from US10336762B2 (priority 2017, dated 2019).
Where two headings read alike, the source gives them in different places.

How the values were obtained:
TNFα = test: cells; assay type: cell-based, human; details: Homo sapiens, Monocyte, LPS-stimulated human monocytes, read-out: EC50 TNF
IRAK4 enzyme = IRAK4 enzyme (Homo sapiens (Human), UniProt Q9NWZ3); test: biochemical; assay type: biochemical; details: IRAK4 enzyme, 500 μM ATP
Chain of IRAK4 enzyme (Q9NWZ3 whole entry): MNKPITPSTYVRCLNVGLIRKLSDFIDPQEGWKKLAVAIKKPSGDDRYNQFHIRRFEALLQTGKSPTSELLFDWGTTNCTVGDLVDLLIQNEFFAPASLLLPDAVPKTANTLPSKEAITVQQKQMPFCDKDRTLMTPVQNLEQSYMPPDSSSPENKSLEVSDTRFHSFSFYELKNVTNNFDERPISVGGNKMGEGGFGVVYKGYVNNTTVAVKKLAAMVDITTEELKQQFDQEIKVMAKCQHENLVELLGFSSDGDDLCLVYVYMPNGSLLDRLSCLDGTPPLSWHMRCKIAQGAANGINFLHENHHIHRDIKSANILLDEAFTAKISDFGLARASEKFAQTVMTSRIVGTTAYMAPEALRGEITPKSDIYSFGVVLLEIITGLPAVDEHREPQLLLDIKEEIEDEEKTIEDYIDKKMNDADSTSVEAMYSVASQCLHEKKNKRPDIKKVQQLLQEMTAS

SMILES: CN(C)C(=O)CCNC(=O)c1cnc(-c2ccc3cc(C#N)cnn23)cc1NC12CCC(O)(CC1)CC2 [Example 804, 6-(3-cyanopyrrolo[1,2-b]pyridazin-7-yl)-N-(3-(dimethylamino)-3-oxo-propyl)-4-((4-hydroxy-bicyclo[2.2.2]octan-1-yl)amino)nicotinamide]
- EC50 (TNFα; TNFα by TR-FRET): 48 nM
- IC50 (IRAK4 enzyme; TR-FRET): < 1 nM

SMILES: CC(=O)NC12CC(Nc3cc(-c4ccc5cc(C#N)cnn45)ncc3C(=O)NC3(C#N)CC3)(C1)C2 [Example 492, 4-((3-acetamido-bicyclo[1.1.1]pentan-1-yl)amino)-N-(1-cyano-cyclopropyl)-6-(3-cyanopyrrolo[1,2-b]pyridazin-7-yl)nicotinamide]
- EC50 (TNFα; TNFα content): 101 nM
- IC50 (IRAK4 enzyme; TR-FRET (HTRF)): 1 nM

SMILES: CN(C)C(=O)O[C@H]1CC[C@@H](Nc2cc(-c3ccc4cc(C#N)cnn34)ncc2C(=O)NC[C@@H](F)C(C)(C)O)CC1 [Example 167, (1S,4s)-4-((2-(3-cyano-pyrrolo[1,2-b]pyridazin-7-yl)-5-(((R)-2-fluoro-3-hydroxy-3-methylbutyl)carbamoyl)pyridin-4-yl)amino)cyclohexyl dimethylcarbamate]
- EC50 (TNFα; TNFα content): > 10000 nM
- IC50 (IRAK4 enzyme; TR-FRET): 1000 nM

SMILES: CC(C)(O)[C@H](F)CNC(=O)c1cnc(-c2ccc3cc(C#N)cnn23)cc1N[C@H]1C[C@H](CNC(=O)OCC(F)(F)F)C1 [Example 654, 2,2,2-trifluoroethyl (((1R,3r)-3-((2-(3-cyanopyrrolo[1,2-b]pyridazin-7-yl)-5-(((R)-2-fluoro-3-hydroxy-3-methylbutyl)carbamoyl)pyridin-4-yl)amino)cyclo-butyl)methyl)carbamate]
- EC50 (TNFα; TNFα content): 15 nM
- IC50 (IRAK4 enzyme; TR-FRET (HTRF)): < 1 nM

SMILES: CC(C)(O)[C@H](F)CNC(=O)c1cnc(-c2ccc3cc(C#N)cnn23)cc1Nc1cnn([C@@H]2CNC[C@@H]2F)c1 [Example 883, 6-(3-cyanopyrrolo[1,2-b]pyridazin-7-yl)-N-((R)-2-fluoro-3-hydroxy-3-methylbutyl)-4-((1-((3R,4S)-4-fluoro-pyrrolidin-3-yl)-1H-pyrazol-4-yl)amino) nicotinamide]
- EC50 (TNFα; TNFα by TR-FRET): 90 nM
- IC50 (IRAK4 enzyme; TR-FRET): < 1 nM

SMILES: CC(C)(O)[C@H](F)CNC(=O)c1cnc(-c2ccc3cc(C#N)cnn23)cc1N[C@]1(C)C[C@H](O)C1 [Example 433, 6-(3-cyanopyrrolo[1,2-b]pyridazin-7-yl)-N-((R)-2-fluoro-3-hydroxy-3-methylbutyl)-4-(((1s,3S)-3-hydroxy-1-methylcyclobutyl)amino) nicotinamide]
- EC50 (TNFα; TNFα content): 47 nM
- IC50 (IRAK4 enzyme; TR-FRET (HTRF)): < 1 nM

SMILES: CC(C)(O)[C@H](F)CNC(=O)c1cnc(-c2ccc3cc(C#N)cnn23)cc1Nc1nnc(N2CCOCC2)o1 [Example 144, (R)-6-(3-cyanopyrrolo[1,2-b]pyridazin-7-yl)-N-(2-fluoro-3-hydroxy-3-methylbutyl)-4-((5-morpholino-1,3,4-oxadiazol-2-yl)amino) nicotinamide]
- EC50 (TNFα; TNFα content): > 10000 nM
- IC50 (IRAK4 enzyme; TR-FRET): 656 nM

SMILES: COC(=O)NC12CCC(Nc3cc(-c4ccc5cc(C#N)cnn45)ncc3C(=O)NC3CCC(NC(=O)N4CCOCC4)CC3)(CC1)CC2 (centres unmarked) [Example 270, methyl (4-((2-(3-cyano-pyrrolo[1,2-b]pyridazin-7-yl)-5-((4-(morpholine-4-carboxamido)cyclohexyl)carbamoyl)pyridin-4-yl)amino)bicyclo[2.2.2]octan-1-yl)carbamate]
- EC50 (TNFα; TNFα content): 49 nM
- IC50 (IRAK4 enzyme; TR-FRET): 1 nM

SMILES: CC(C)(O)[C@H](F)CNC(=O)c1cnc(-c2ccc3cc(C#N)cnn23)cc1N[C@H]1C[C@H](O)C1 [Example 169, 6-(3-cyanopyrrolo[1,2-b]pyridazin-7-yl)-N-((R)-2-fluoro-3-hydroxy-3-methylbutyl)-4-(((1r,3R)-3-hydroxycyclobutyl)amino) nicotinamide]
- EC50 (TNFα; TNFα content): > 10000 nM
- IC50 (IRAK4 enzyme; TR-FRET): 183 nM

SMILES: CC(C)(C)OC(=O)NC12CCC(Nc3cc(-c4ccc5cc(C#N)cnn45)ncc3C(=O)NC[C@@H](F)C(C)(C)O)(CC1)CC2 [Example 304, (R)-tert-butyl (4-((2-(3-cyanopyrrolo[1,2-b]pyridazin-7-yl)-5-((2-fluoro-3-hydroxy-3-methylbutyl)carbamoyl)pyridin-4yl)amino)bicyclo[2.2.2]octan-1-yl)carbamate]
- EC50 (TNFα; TNFα content): 677 nM
- IC50 (IRAK4 enzyme; TR-FRET): 4 nM

SMILES: N#Cc1cnn2c(-c3cc(NC45CCC(O)(CC4)CC5)c(C(=O)NCC(=O)N4CCC(F)(F)C4)cn3)ccc2c1 [Example 798, 6-(3-cyanopyrrolo[1,2-b]pyridazin-7-yl)-N-(2-(3,3-difluoropyrrolidin-1-yl)-2-oxoethyl)-4-((4-hydroxybicyclo[2.2.2]octan-1-yl)amino) nicotinamide]
- EC50 (TNFα; TNFα by TR-FRET): 42 nM
- IC50 (IRAK4 enzyme; TR-FRET): 1 nM

SMILES: CC(C)Nc1cc(-c2ccc3cc(C#N)cnn23)ncc1C(=O)NCC(F)(F)C(C)(C)O [Example 116, 6-(3-cyanopyrrolo[1,2-b]pyridazin-7-yl)-N-(2,2-difluoro-3-hydroxy-3-methylbutyl)-4-(isopropylamino) nicotinamide]
- EC50 (TNFα; TNFα content): 98 nM
- IC50 (IRAK4 enzyme; TR-FRET): < 1 nM

SMILES: CC(C)(O)[C@H](F)CNC(=O)c1cnc(-c2ccc3cc(C#N)cnn23)cc1NC1CCC2(CC1)COC2 [Example 781, (R)-4-(2-oxaspiro[3.5]nonan-7-ylamino)-6-(3-cyanopyrrolo[1,2-b]pyridazin-7-yl)-N-(2-fluoro-3-hydroxy-3-methyl-butyl)nicotinamide]
- EC50 (TNFα; TNFα content): 90 nM
- IC50 (IRAK4 enzyme; TR-FRET (HTRF)): < 1 nM

SMILES: CC(C)(O)[C@H](F)CNC(=O)c1cnc(-c2ccc3cc(C#N)cnn23)cc1NC1CCOCC1 [Example 42, (R)-6-(3-cyanopyrrolo[1,2-b]pyridazin-7-yl)-N-(2-fluoro-3-hydroxy-3-methylbutyl)-4-((tetrahydro-2H-pyran-4-yl)amino)nicotinamide]
- EC50 (TNFα; TNFα content): 35 nM
- IC50 (IRAK4 enzyme; TR-FRET): < 1 nM

SMILES: COC(=O)N[C@H]1CC[C@H](Nc2cc(-c3ccc4cc(C#N)cnn34)ncc2C(=O)NC[C@@H](F)C(C)(C)O)CC1 [Example 314, methyl ((1R,4r)-4-((2-(3-cyanopyrrolo[1,2-b]pyridazin-7-yl)-5-(((R)-2-fluoro-3-hydroxy-3-methylbutyl)carbamoyl)pyridin-4-yl)amino)cyclo-hexyl)carbamate]
- EC50 (TNFα; TNFα content): 20 nM
- IC50 (IRAK4 enzyme; TR-FRET): < 1 nM

SMILES: N#Cc1cnn2c(-c3cc(NC45CCC(O)(CC4)CC5)c(C(=O)NCC(F)(F)C(=O)N4CC(F)(F)C4)cn3)ccc2c1 [Example 961, 6-(3-cyanopyrrolo[1,2-b]pyridazin-7-yl)-N-(3-(3,3-difluoroazetidin-1-yl)-2,2-difluoro-3-oxopropyl)-4-((4-hydroxybicyclo[2.2.2]octan-1-yl)amino)nicotinamide]
- EC50 (TNFα; TNFα by TR-FRET): 382 nM
- IC50 (IRAK4 enzyme; TR-FRET): 2 nM

SMILES: COC(=O)NC(C)(C)CCCNc1cc(-c2ccc3cc(C#N)cnn23)ncc1C(=O)NC[C@@H](F)C(C)(C)O [Example 726, (R)-methyl (5-((2-(3-cyanopyrrolo[1,2-b]pyridazin-7-yl)-5-((2-fluoro-3-hydroxy-3-methylbutyl)carbamoyl)pyridin-4-yl)amino)-2-methylpentan-2-yl) carbamate]
- EC50 (TNFα; TNFα content): 169 nM
- IC50 (IRAK4 enzyme; TR-FRET (HTRF)): 4 nM

SMILES: CC(C)(O)[C@H](F)CNC(=O)c1cnc(-c2ccc3cc(C#N)cnn23)cc1N[C@H]1CCC[C@@H]1O [Example 262, 6-(3-cyanopyrrolo[1,2-b]pyridazin-7-yl)-N-((R)-2-fluoro-3-hydroxy-3-methylbutyl)-4-(((1S,2S)-2-hydroxycyclopentyl)amino)nicotinamide]
- EC50 (TNFα; TNFα content): 21 nM
- IC50 (IRAK4 enzyme; TR-FRET): < 1 nM

SMILES: CC(C)(O)[C@H](F)CNC(=O)c1cnc(-c2ccc3cc(C#N)cnn23)cc1Nc1cnc(N2CCNCC2)nc1 [Example 921, (R)-6-(3-cyanopyrrolo[1,2-b]pyridazin-7-yl)-N-(2-fluoro-3-hydroxy-3-methyl-butyl)-4-((2-(piperazin-1-yl)pyrimidin-5-yl)amino) nicotinamide]
- EC50 (TNFα; TNFα by TR-FRET): 45 nM
- IC50 (IRAK4 enzyme; TR-FRET): < 1 nM

SMILES: CC(C)(O)[C@H](F)CNC(=O)c1cnc(-c2ccc3cc(C#N)cnn23)cc1Nc1cccnc1 [Example 4, (R)-6-(3-cyanopyrrolo[1,2-b]pyridazin-7-yl)-N-(2-fluoro-3-hydroxy-3-methylbutyl)-4-(pyridin-3-ylamino)nicotinamide]
- EC50 (TNFα; TNFα content): 33 nM
- IC50 (IRAK4 enzyme; TR-FRET): < 1 nM

SMILES: CC(=O)NC12CC(NC(=O)c3cnc(-c4ccc5cc(C#N)cnn45)cc3NC(C)C)(C1)C2 [Example 132, N-(3-acetamidobicyclo [1.1.1]pentan-1-yl)-6-(3-cyanopyrrolo[1,2-b]pyridazin-7-yl)-4-(isopropylamino) nicotinamide]
- EC50 (TNFα; TNFα content): 222 nM
- IC50 (IRAK4 enzyme; TR-FRET): 5 nM

SMILES: N#Cc1cnn2c(-c3cc(NC45CCC(O)(CC4)CC5)c(C(=O)NC45CCC(O)(CC4)CC5)cn3)ccc2c1 [Example 402, 6-(3-cyanopyrrolo[1,2-b]pyridazin-7-yl)-N-(4-hydroxybicyclo[2.2.2]octan-1-yl)-4-((4-hydroxy-bicyclo[2.2.2]octan-1-yl)amino)nicotinamide]
- EC50 (TNFα; TNFα content): 77 nM
- IC50 (IRAK4 enzyme; TR-FRET (HTRF)): 2 nM

SMILES: N#Cc1cnn2c(-c3cc(NC45CCC(O)(CC4)CC5)c(C(=O)NCC4(F)CC4)cn3)ccc2c1 [Example 709, 6-(3-cyanopyrrolo[1,2-b]pyridazin-7-yl)-N-((1-fluorocyclopropyl)methyl)-4-((4-hydroxy-bicyclo[2.2.2]octan-1-yl)amino)nicotinamide]
- EC50 (TNFα; TNFα content): 151 nM
- IC50 (IRAK4 enzyme; TR-FRET (HTRF)): 3 nM

SMILES: COC(C)(C)[C@H](F)CNC(=O)c1cnc(-c2ccc3cc(C#N)cnn23)cc1NC12CC(NC(C)=O)(C1)C2 [Example 495, (R)-4-((3-acetamidobicyclo[1.1.1]pentan-1-yl)amino)-6-(3-cyanopyrrolo[1,2-b]pyridazin-7-yl)-N-(2-fluoro-3-methoxy-3-methylbutyl)nicotinamide]
- EC50 (TNFα; TNFα content): 40 nM
- IC50 (IRAK4 enzyme; TR-FRET (HTRF)): < 1 nM

SMILES: COCc1cncc(Nc2cc(-c3ccc4cc(C#N)cnn34)ncc2C(=O)NC[C@@H](F)C(C)(C)O)c1 [Example 784, (R)-6-(3-cyanopyrrolo[1,2-b]pyridazin-7-yl)-N-(2-fluoro-3-hydroxy-3-methylbutyl)-4-((5-(methoxymethyl)pyridin-3-yl)amino)nicotinamide]
- EC50 (TNFα; TNFα content): 40 nM
- IC50 (IRAK4 enzyme; TR-FRET (HTRF)): < 1 nM
